# Like-named read-outs stand apart in the source and are kept apart here.
# Biological target: T1, CIB1 and αIIb interaction (CIB1-GST : F-αIIb peptide) (Homo sapiens, UniProt Q99828)
# T1 construct: made in house; host or cells: BL-21 plus RIL cells (E. coli)
# T1 sequence (Q99828 1-191): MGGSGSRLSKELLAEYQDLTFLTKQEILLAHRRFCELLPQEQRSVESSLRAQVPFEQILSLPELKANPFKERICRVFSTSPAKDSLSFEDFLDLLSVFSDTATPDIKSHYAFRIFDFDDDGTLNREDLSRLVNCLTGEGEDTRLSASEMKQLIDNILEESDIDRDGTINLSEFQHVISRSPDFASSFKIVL
# Experiment: FP assay, 1536-well qHTS format (primary and confirmatory screen)
# Type: binding
# Conditions: for Efficacy (%): negative = inhibition; for Curve Class: negative sign = inhibitory curve; for IC50: read-out: IC50
# [1] = qHTS primary screen hits, Table S2
# [2] = qHTS primary screen hits, Table S2, several classes where COUNT > 1
# [3] = qHTS primary screen of LOPAC/NPACT libraries
# [4] = qHTS primary screen hits, Table S2, NPACT library
Compound,Efficacy (%) [1] [%],Curve Class [2],IC50 [1] [µM],Curve Class [1],Efficacy (%) [3] [%],Curve Class [3],IC50 [3] [µM],Curve Class [4]
Cn1ccc(=Nc2ccc(NC(=O)c3ccc(/N=c4/ccn(C)c5ccc([N+](=O)[O-])cc45)cc3)cc2)cc1.O=C(O)C(F)(F)F [NCGC00356208-01],-35,-2.4,56.2,,,,,
Cl.O=C(O)c1csc(-n2nc(-c3ccc(F)c(F)c3)c(Cc3ccccc3)c2O)n1 [NCGC00356264-02],-25,-2.4,79.4,,,,,
Cl.NS(=O)(=O)c1cccc(Cc2c(-c3ccc(F)c(F)c3)nn(-c3nc(C(=O)O)cs3)c2O)c1 [NCGC00356269-01],-17,-2.4,50.1,,,,,
CC(C)(C)OC(=O)c1csc(-n2nc(-c3ccc(F)c(F)c3)c(-c3ccccc3)c2O)n1.O=C(O)C(F)(F)F [NCGC00356364-01],-24,,56.2,-2.4,,,,
CCOC(=O)c1csc(-n2nc(-c3ccc(F)c(F)c3)cc2O)n1 [NCGC00356457-01],-29,,56.2,-2.4,,,,
Nc1ccc2nc3c(=O)n(CCc4ccccc4)c(=O)[nH]c3nc2c1.O=C(O)C(F)(F)F [NCGC00356558-01],-62,-1.2,5,,,,,
CNS(=O)(=O)c1ccc(Cc2c(-c3cccc(-c4ccccc4)c3)nn(-c3nc(C(=O)O)cs3)c2O)cc1.O=C(O)C(F)(F)F [NCGC00356637-01],-55,-3,79.4,,,,,
NS(=O)(=O)c1ccc(Cc2cn(-c3nc(C(=O)O)cs3)c3ncccc23)cc1 [NCGC00356703-01],-41,-2.2,44.7,,,,,
N#CCc1cc(-c2ccc(F)c(F)c2)nn1-c1nc(C(=O)O)cs1.O=C(O)C(F)(F)F [NCGC00356771-02],-16,,50.1,-2.4,,,,
NS(=O)(=O)c1ccc(NCc2cn(-c3nc(C(=O)O)cs3)nc2-c2ccccc2)cc1.O=C(O)C(F)(F)F [NCGC00357525-01],-25,-2.4,56.2,,,,,
COc1ccc(S(=O)(=O)Nc2nc(-c3cccc([N+](=O)[O-])c3)cs2)cc1OC [NCGC00370730-07],,,,,-22,-1.4,22.4,
CC1=C(C(=O)OC2CCCCC2)C(c2ccc([N+](=O)[O-])cc2)C2=C(CC(C)(C)CC2=O)N1 (stereo not drawn) [NCGC00370923-11],,,,,-104,-2.1,17.8,
O=C(O)CCc1ccc(NCc2cccc3c2CCCN3CCOc2ccccc2)cc1F [NCGC00370998-03],,,,,-32,-2.4,44.7,
N#CSc1cc(SC#N)c(N)nc1N [NCGC00371134-01],,,,,-31,-2.4,14.1,
Nc1c(C(=O)Nc2ccc(F)cc2)sc2nc(-c3cccs3)ccc12.O=C(O)C(F)(F)F [NCGC00371815-01],-31,-2.4,79.4,,,,,
COc1cccc2nc3c(C(=O)NCCN(C)C)cccc3cc12.O=C(O)C(F)(F)F [NCGC00371843-01],-37,-2.4,50.1,,,,,
O=C(O)c1csc(-n2cc(Cc3ccc(CO)cc3)c(-c3cccc(-c4ccccc4)c3)n2)n1 [NCGC00371885-01],-35,-2.4,44.7,,,,,
Cn1cc(-c2cnc3ccc4ccc(CS(=O)(=O)NCc5ccccn5)cc4c(=O)c3c2)cn1 [NCGC00378567-02],,,,,-17,-1.4,10,
CCOc1cc(C(C)(C)C)ccc1C1=N[C@@](C)(c2ccc(Cl)cc2)[C@@](C)(c2ccc(Cl)cc2)N1C(=O)N1CCN(CC(=O)N2CCOCC2)CC1 [NCGC00378588-02],-29,-2.4,49.1,,,,,
CNC(=O)c1ccccc1Nc1cc(Nc2ccc(N3CCOCC3)cc2OC)ncc1C(F)(F)F [NCGC00378620-04],,,,,-24,-1.4,6.3,
Cc1cc(-c2cc(O)ccc2Cl)cc2nnc(Nc3ccc(OCCN4CCCC4)cc3)nc12.Cl [NCGC00378690-01],,,,,-25,-2.4,56.2,
Cc1cccc(C)c1-n1c(=O)c2cnc(Nc3ccc(N4CCN(C)CC4)cc3)nc2n2c3ccccc3nc12 [NCGC00378811-02],,,,,-28,-2.4,56.2,
CO[C@@H](Cc1ccc(OCCc2nc(-c3ccccc3)oc2C)c2ccsc12)C(=O)O [NCGC00378922-01],,,,,-15,-1.4,20,

Compound,Efficacy (%) [1] [%],Curve Class [2],IC50 [1] [µM],Curve Class [1],Efficacy (%) [3] [%],Curve Class [3],IC50 [3] [µM],Curve Class [4]
CCOc1cc(C(=O)N2CCC(N3CCN(C)CC3)CC2)ccc1Nc1ncc2c(n1)N(C1CCCC1)c1ccccc1C(=O)N2C [NCGC00378965-03],,,,,-25,-2.4,56.2,
CCCC1(CCC)CCC2(CCN(CCCN(CC)CC)C2)CC1.Cl [NCGC00379163-01],,,,,-32,-2.4,79.4,
Cc1cc(O)cc(Oc2cc(C)c(C(=O)O)c(O)c2)c1 [NCGC00380115-01],,,,,-28,-2.4,56.2,
C=C1CCC2C(C)(C)CC(O)CC2(C)C1CCC(C)CCOC(=O)CCC(=O)O (stereo not drawn) [NCGC00380160-01],,,,,-24,-2.4,39.8,
C=C1C(=O)O[C@@H]2C/C(C)=C\C(=O)/C=C(\C)[C@@H](OC(=O)/C(C)=C\C)[C@H](O)[C@@H]12 [NCGC00380290-01],,,,,-23,-1.4,4.5,
CC1(CO)CCCC2(C)C1C(OC(=O)c1ccccc1)C=C1C(=O)OCC12O (stereo not drawn) [NCGC00380390-01],,,,,-28,-2.4,44.7,
C=C1C2(C)CC3C(C)(O)C4=CC(=O)OC(C)(C)C4=CCC3(C)C13C(=O)OC(C)C3(O)C2=O (stereo not drawn) [NCGC00380442-01],,,,,-28,-2.4,35.5,
C=C(C)C(=O)OC1CC2(C)OC(=CC2=O)C(=C)CC2OC(=O)C(COC)C12 (stereo not drawn) [NCGC00380534-01],-17,,28.2,,,,,-1.4
CC1OC2OC(=O)C3(C)CC4C5(CO5)C5=CC(=O)OC(C)(C)C5=CC(=O)C4(C)C(C1=O)C23 (stereo not drawn) [NCGC00380663-01],-57,,31.6,,,,,-2.2
O=C(/C=C/c1ccccc1)OC[C@H]1O[C@@H](OC(=O)c2cc(O)c(O)c(O)c2)[C@H](O)[C@@H](O)[C@@H]1O [NCGC00380690-01],,,,,-20,-1.4,8.9,
Cc1c(O)cc2c(c1O)COC1(O)CCCOC21 (stereo not drawn) [NCGC00380856-01],,,,,-23,-2.4,50.1,
CCC(C)(OC(C)=O)C(=O)O[C@H]1[C@H](OC(C)=O)C[C@@H]2[C@@](C)([C@@H]3C[C@H]4C=CO[C@H]4O3)[C@H](C)C[C@H](OC(C)=O)[C@@]2(COC(C)=O)[C@@]12CO2 (stereo partly drawn) [NCGC00380906-01],,,,,-20,-2.4,10,
C=C1CC(=O)C2OC2(C)CC2OC(=O)C(=C)C2C(O)C1OC(=O)/C(C)=C\C (stereo not drawn) [NCGC00381057-01],,,,,-21,-1.4,14.1,
C=C(C)C(=O)OC1CC2(C)OC(=CC2=O)C(=C)CC2OC(=O)C(=C)C12 (stereo not drawn) [NCGC00381113-01],,,,,-22,-1.4,8.9,
C=C1C(=O)O[C@@H]2C(OC(=O)/C(C)=C\C)/C(C)=C\C(=O)/C=C(\C)C[C@H](O)[C@@H]12 (stereo partly drawn) [NCGC00381208-01],,,,,-28,-1.4,1.6,
CCC(C)CC(=O)OC1C(=O)C(CO)=CC(O)C1C(C)C (stereo not drawn) [NCGC00381331-01],,,,,-22,-2.4,56.2,
COC(=O)CC1OC(C)C2=C(O)c3c(O)cccc3C(=O)C23OC13 (stereo not drawn) [NCGC00381362-01],,,,,-22,-2.4,25.1,
C=C1CC2OC(=O)C(=C)C2C(OC(=O)/C(C)=C\C)CC2(C)OC1=CC2=O (stereo not drawn) [NCGC00384607-01],,,,,-25,-1.4,11.2,
C=C1CCC2C(C)(COC(C)=O)CCCC2(C)C1CCC(C)CC(=O)O (stereo not drawn) [NCGC00384884-01],,,,,-20,-1.4,17.8,
COc1ccc(C(=O)O[C@H]2C=COC=C3C=C4C(=O)N(C)C(=S)C(=O)N4[C@@H]32)cc1Oc1cc(C=O)ccc1O [NCGC00384899-01],-66,,22.4,-2.2,,,,
CC1CC2(O)OC(=O)C3=C2C(CCC3)[C@@]12C[C@@H](c1ccoc1)OC2=O (stereo partly drawn) [NCGC00385045-01],,,,,-23,-2.4,31.6,
COc1cc(/C=C/c2ccccc2)c(C(=O)O)c(O)c1CC=C(C)C [NCGC00385333-01],,,,,-18,-2.4,31.6,
CC(NC(=O)CC(=O)O)c1nc2ccccc2c(=O)[nH]1 (stereo not drawn) [NCGC00385407-01],,,,,-145,-2.1,28.2,

# — article PMC11249646, “Small-Molecule Disruptors of the Interaction between Calcium- and Integrin-Binding Protein 1 and Integrin αIIbβ3 as Novel Antiplatelet Agents” (ACS Pharmacology & Translational Science, 2024)
